According to patent publication US20240270740A1, “INHIBITORS OF CYCLIC GMP-AMP SYNTHASE AND USES THEREOF” (Ventus Therapeutics U.S., Inc., priority 2022, published 2024):

The compounds below were run against hcGAS (Homo sapiens, UniProt Q8N884) (assay: hcGAS LCMS assay (direct measurement of cGAMP production)). Settings: 0.5 nM hcGAS, 100 μM ATP, 100 μM GTP, 25 nM dsDNA, 4 h incubation.
Type: biochemical
Method in brief: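 Direct LC/MS readout of cGAMP formed: 4-h enzyme–substrate incubation with compound, stopped by acetonitrile/water quench carrying isotope-labelled cGAMP (0.15 mM) as standard. Potency reported as IC50 ranges.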

Chain of hcGAS (Q8N884 whole entry): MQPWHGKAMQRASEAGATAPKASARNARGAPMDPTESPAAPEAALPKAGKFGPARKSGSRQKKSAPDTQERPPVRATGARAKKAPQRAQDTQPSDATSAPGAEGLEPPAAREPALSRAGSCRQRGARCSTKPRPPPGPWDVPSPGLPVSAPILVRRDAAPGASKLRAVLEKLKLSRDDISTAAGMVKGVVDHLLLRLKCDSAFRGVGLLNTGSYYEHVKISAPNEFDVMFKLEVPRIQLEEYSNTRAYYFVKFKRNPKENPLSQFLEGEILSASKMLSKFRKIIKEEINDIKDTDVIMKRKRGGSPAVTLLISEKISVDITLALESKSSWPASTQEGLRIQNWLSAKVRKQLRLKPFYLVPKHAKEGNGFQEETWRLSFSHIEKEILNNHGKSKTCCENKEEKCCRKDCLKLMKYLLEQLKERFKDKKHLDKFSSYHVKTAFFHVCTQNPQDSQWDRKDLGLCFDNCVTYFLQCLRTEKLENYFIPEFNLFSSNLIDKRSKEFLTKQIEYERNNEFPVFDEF

Row | Compound | IC50 [nM]
1 | COc1c(N[C@H]2COC[C@@H]2OC)cc(C(=O)Nc2nnc(-n3nccc3C)s2)oc1=O [Compound 13, 3-methoxy-4-(((3S,4R)-4-methoxytetrahydrofuran-3-yl)amino)-N-(5-(5-methyl-1H-pyrazol-1-yl)-1,3,4-thiadiazol-2-yl)-2-oxo-2H-pyran-6-carboxamide] | 5 to 20
2 | COC[C@@H]1CCN1c1cc(C(=O)Nc2nnc(-n3nccc3C)s2)oc(=O)c1OC [Compound 95, (S)-3-methoxy-4-(2-(methoxymethyl)azetidin-1-yl)-N-(5-(5-methyl-1H-pyrazol-1-yl)-1,3,4-thiadiazol-2-yl)-2-oxo-2H-pyran-6-carboxamide] | 5 to 20
3 | COc1c(NCC2(OC)CC2)cc(C(=O)Nc2nnc(-n3nccc3C)s2)oc1=O [Compound 190] | 5 to 20
4 | COC[C@@H](Nc1cc(C(=O)Nc2nnc(-n3nccc3C)s2)oc(=O)c1OC)c1ccccc1OC (single isomer, unassigned) [199*] | < 5
5 | COCC1(Nc2cc(C(=O)Nc3nnc(-n4nccc4C)s3)oc(=O)c2OC)COC1 [Compound 98, 3-methoxy-4-((3-(methoxymethyl)oxetan-3-yl)amino)-N-(5-(5-methyl-1H-pyrazol-1-yl)-1,3,4-thiadiazol-2-yl)-2-oxo-2H-pyran-6-carboxamide] | 5 to 20
6 | Cc1ccnn1-c1nnc(NC(=O)c2cc3c(c(=O)o2)OCCN3[C@@H]2CCC[C@@H]2C#N)s1 [Compound 223, 1-((1R,2S)-2-cyanocyclopentyl)-N-(5-(5-methyl-1H-pyrazol-1-yl)-1,3,4-thiadiazol-2-yl)-5-oxo-1,2,3,5-tetrahydropyrano[3,4-b][1,4]oxazine-7-carboxamide] | 5 to 20
7 | 4-(((1S,2R)-2-(hydroxymethyl)cyclopentyl)amino)-3-methoxy-N-(5-(5-methyl-1H-pyrazol-1-yl)-1,3,4-thiadiazol-2-yl)-2-oxo-2H-pyran-6-carboxamide [Rac-55] | ≥ 200
8 | COc1c(N[C@H]2CC[C@@H](OC)C2)cc(C(=O)Nc2nnc(-n3nccc3C)s2)oc1=O (single isomer, unassigned) [124*] | 5 to 20
9 | COc1c(N(CCO)CCO)cc(C(=O)Nc2nnc(-n3nccc3C)s2)oc1=O (single isomer, unassigned) [Compound 158, 4-(bis(2-hydroxyethyl)amino)-3-methoxy-N-(5-(5-methyl-1H-pyrazol-1-yl)-1,3,4-thiadiazol-2-yl)-2-oxo-2H-pyran-6-carboxamide] | 60 to 200
10 | COc1c(N[C@H]2CCC[C@H]2C#N)cc(C(=O)Nc2nnc(-n3nccc3C)s2)oc1=O (single isomer, unassigned) [Compound 74] | < 5
11 | COc1c(N[C@H]2COC[C@H]2OC)cc(C(=O)Nc2nnc(-n3nccc3C)s2)oc1=O [Compound 160, 3-Methoxy-4-(((3S,4S)-4-methoxytetrahydrofuran-3-yl)amino)-N-(5-(5-methyl-1H-pyrazol-1-yl)-1,3,4-thiadiazol-2-yl)-2-oxo-2H-pyran-6-carboxamide] | 5 to 20
12 | COc1c(N2C[C@@H](OC)CC2=O)cc(C(=O)Nc2nnc(-n3nccc3C)s2)oc1=O [Compound 155, (S)-3-methoxy-4-(4-methoxy-2-oxopyrrolidin-1-yl)-N-(5-(5-methyl-1H-pyrazol-1-yl)-1,3,4-thiadiazol-2-yl)-2-oxo-2H-pyran-6-carboxamide] | 5 to 20
13 | COC[C@H](C1CC1)N1CCOc2c1cc(C(=O)Nc1nnc(-n3nccc3C)s1)oc2=O [Compound 226, (S)-1-(1-cyclopropyl-2-methoxyethyl)-N-(5-(5-methyl-1H-pyrazol-1-yl)-1,3,4-thiadiazol-2-yl)-5-oxo-1,2,3,5-tetrahydropyrano[3,4-b][1,4]oxazine-7-carboxamide] | < 5
14 | COc1c(N[C@H]2CCC[C@H]2OC)cc(C(=O)Nc2nnc(-n3nccc3C)s2)oc1=O (single isomer, unassigned) [214*] | 5 to 20
15 | COc1c(N(C)[C@@H]2CCC[C@@H]2OC)cc(C(=O)Nc2nnc(-n3nccc3C)s2)oc1=O (racemic) [Rac-153, 3-methoxy-4-(((cis)-2-methoxycyclopentyl)(methyl)amino)-N-(5-(5-methyl-1H-pyrazol-1-yl)-1,3,4-thiadiazol-2-yl)-2-oxo-2H-pyran-6-carboxamide] | 5 to 20
16 | COc1c(N[C@@H]2CC[C@@H]2O)cc(C(=O)Nc2nnc(-c3c(Cl)ccn3C)s2)oc1=O (single isomer, unassigned) [Compound 54] | < 5

Row | Compound | IC50 [nM]
17 | COCCNc1cc(C(=O)Nc2nnc(-c3c(Cl)nsc3Cl)s2)oc(=O)c1OC [Compound 156, N-(5-(3,5-dichloroisothiazol-4-yl)-1,3,4-thiadiazol-2-yl)-3-methoxy-4-((2-methoxyethyl)amino)-2-oxo-2H-pyran-6-carboxamide] | 60 to 200
18 | COc1c(N[C@@H]2CC[C@@H]2OCC(F)F)cc(C(=O)Nc2nnc(-n3nccc3C)s2)oc1=O (single isomer, unassigned) [173*] | 20 to 60
19 | COc1c(NC[C@H]2CCO2)cc(C(=O)Nc2nnc(-n3nccc3C)s2)oc1=O [Compound 118, (R)-3-methoxy-N-(5-(5-methyl-1H-pyrazol-1-yl)-1,3,4-thiadiazol-2-yl)-4-((oxetan-2-ylmethyl)amino)-2-oxo-2H-pyran-6-carboxamide] | 5 to 20
20 | COc1c(N[C@H]2CCC[C@H]2O)cc(C(=O)Nc2nnc(-c3c(Cl)ccn3C)s2)oc1=O [Compound 83, N-(5-(3-chloro-1-methyl-1H-pyrrol-2-yl)-1,3,4-thiadiazol-2-yl)-4-(((1S,2R)-2-hydroxycyclopentyl)amino)-3-methoxy-2-oxo-2H-pyran-6-carboxamide] | < 5
21 | COCCOc1c(N[C@@H](COC)c2ccccc2)cc(C(=O)Nc2nnc(-c3c(Cl)ccn3C)s2)oc1=O [Compound 201, (R)—N-(5-(3-chloro-1-methyl-1H-pyrrol-2-yl)-1,3,4-thiadiazol-2-yl)-4-((2-methoxy-1-phenylethyl)amino)-3-(2-methoxyethoxy)-2-oxo-2H-pyran-6-carboxamide] | < 5
22 | COc1c(NC2CC3(COC3)C2)cc(C(=O)Nc2nnc(-n3nccc3C)s2)oc1=O [Compound 50, 4-((2-oxaspiro[3.3]heptan-6-yl)amino)-3-methoxy-N-(5-(5-methyl-1H-pyrazol-1-yl)-1,3,4-thiadiazol-2-yl)-2-oxo-2H-pyran-6-carboxamide] | 60 to 200
23 | COc1c(N[C@@H]2CCC[C@H]2OC)cc(C(=O)Nc2nnc(-n3nccc3C)s2)oc1=O (single isomer, unassigned) [3*] | < 5
24 | COC[C@@H](Nc1cc(C(=O)Nc2nnc(-n3nccc3C)s2)oc(=O)c1OC)c1ccccc1 [Compound 49, (S)-3-methoxy-4-((2-methoxy-1-phenylethyl)amino)-N-(5-(5-methyl-1H-pyrazol-1-yl)-1,3,4-thiadiazol-2-yl)-2-oxo-2H-pyran-6-carboxamide] | 20 to 60
25 | COC[C@H]1[C@H](OC)CCN1c1cc(C(=O)Nc2nnc(-n3nccc3C)s2)oc(=O)c1OC [Compound 211, 3-methoxy-4-((2S,3R)-3-methoxy-2-(methoxymethyl)pyrrolidin-1-yl)-N-(5-(5-methyl-1H-pyrazol-1-yl)-1,3,4-thiadiazol-2-yl)-2-oxo-2H-pyran-6-carboxamide] | 5 to 20
26 | COc1c(N[C@H]2CCC[C@@H]2OC)cc(C(=O)Nc2nnc(-n3nccc3C)s2)oc1=O (single isomer, unassigned) [4*] | 5 to 20
27 | COc1c(N[C@@H]2CCC[C@@H]2OCC(F)F)cc(C(=O)Nc2nnc(-n3nccc3C)s2)oc1=O [Compound 171, 4-(((1R, 2S)-2-(2,2-difluoroethoxy)cyclopentyl)amino)-3-methoxy-N-(5-(5-methyl-1H-pyrazol-1-yl)-1,3,4-thiadiazol-2-yl)-2-oxo-2H-pyran-6-carboxamide] | 5 to 20
28 | Nc1ccnn1-c1nnc(NC(=O)c2cc(NC34CC(C3)C4)c(OCCO)c(=O)o2)s1 [Compound 177, N-(5-(5-amino-1H-pyrazol-1-yl)-1,3,4-thiadiazol-2-yl)-4-(bicyclo[1.1.1]pentan-1-ylamino)-3-(2-hydroxyethoxy)-2-oxo-2H-pyran-6-carboxamide] | < 5
29 | COc1c(N[C@H]2CC[C@H]2OC)cc(C(=O)Nc2nnc(-c3c(Cl)ccn3C)s2)oc1=O (single isomer, unassigned) [Compound 133*] | 5 to 20
30 | COc1c(NC23COC(C2)C3)cc(C(=O)Nc2nnc(-n3nccc3C)s2)oc1=O [Compound 51, 4-((2-oxabicyclo[2.1.1]hexan-4-yl)amino)-3-methoxy-N-(5-(5-methyl-1H-pyrazol-1-yl)-1,3,4-thiadiazol-2-yl)-2-oxo-2H-pyran-6-carboxamide] | 5 to 20
31 | COc1c(N[C@H]2CC[C@H]2OCC(F)F)cc(C(=O)Nc2nnc(-n3nccc3C)s2)oc1=O (single isomer, unassigned) [172*] | 5 to 20
32 | COc1c(N2CCCS2(=O)=O)cc(C(=O)Nc2nnc(-n3nccc3C)s2)oc1=O [Compound 99, 4-(1,1-dioxidoisothiazolidin-2-yl)-3-methoxy-N-(5-(5-methyl-1H-pyrazol-1-yl)-1,3,4-thiadiazol-2-yl)-2-oxo-2H-pyran-6-carboxamide] | 20 to 60
